{"source": "patent US20050215551A1", "about": "“1-[2H-1-benzopyran-2-one-8-yl]- piperazine derivatives for the treatment of movement disorders” (SOLVAY PHARMACEUTICALS B.V., priority 2004, published 2005)", "key": {"Prostaglandin-I2": {"target": "Prostaglandin-I2 (Homo sapiens, UniProt P43119)", "sequence (P43119 whole entry)": "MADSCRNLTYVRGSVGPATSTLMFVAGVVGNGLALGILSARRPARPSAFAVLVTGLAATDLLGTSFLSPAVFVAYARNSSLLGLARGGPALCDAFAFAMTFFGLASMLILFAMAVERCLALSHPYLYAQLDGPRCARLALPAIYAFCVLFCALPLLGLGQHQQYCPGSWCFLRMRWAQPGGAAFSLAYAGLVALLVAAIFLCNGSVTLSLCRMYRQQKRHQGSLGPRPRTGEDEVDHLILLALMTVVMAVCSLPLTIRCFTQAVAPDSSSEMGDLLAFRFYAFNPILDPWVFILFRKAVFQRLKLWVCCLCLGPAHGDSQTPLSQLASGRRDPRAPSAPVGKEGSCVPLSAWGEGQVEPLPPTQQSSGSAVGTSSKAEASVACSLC", "experiment": "Receptor binding Prostaglandin-I2", "settings": "radioligand [3H]-iloprost, read-out: Ki(nM) Compound 1", "experimental": "(§1) Receptor binding data were obtained by CEREP (128, rue Danton, 92500 Rueil-Malmaison, France) or at Solvay Pharmaceuticals B.V., using well documented standard procedures. Affinity for 5-HT1A receptors for instance, was determined by testing the ability of the compounds of the invention to displace [^3H]-2-(di-n-propylamino)-8-hydroxytetralin ([^3H]-8-OH-DPAT) from its specific binding sites in rat frontal cortex homogenates. This test is based on the method described by Gozlan et al. (Nature, 305, (1983), pages 140-142).\n(§2) The binding data collected in the table below were either obtained by CEREP (128, rue Danton, 92500 Rueil-Malmaison, France) or at Solvay Pharmaceuticals B.V., using well documented standard procedures."}, "Dopamine-D1": {"target": "Dopamine-D1 (Homo sapiens, UniProt P21728)", "sequence (P21728 whole entry)": "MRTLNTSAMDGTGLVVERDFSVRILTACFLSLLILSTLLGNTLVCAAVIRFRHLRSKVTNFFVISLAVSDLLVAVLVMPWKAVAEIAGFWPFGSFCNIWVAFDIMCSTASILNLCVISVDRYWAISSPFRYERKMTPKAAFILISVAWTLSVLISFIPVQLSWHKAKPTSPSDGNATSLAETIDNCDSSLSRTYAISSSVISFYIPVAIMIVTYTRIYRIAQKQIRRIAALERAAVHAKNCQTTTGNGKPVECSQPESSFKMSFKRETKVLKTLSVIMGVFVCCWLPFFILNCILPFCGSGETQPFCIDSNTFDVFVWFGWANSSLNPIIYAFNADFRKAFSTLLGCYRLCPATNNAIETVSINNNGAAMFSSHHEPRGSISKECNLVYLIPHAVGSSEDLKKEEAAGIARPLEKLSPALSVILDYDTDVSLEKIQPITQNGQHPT", "experiment": "Receptor binding Dopamine-D1", "settings": "radioligand [3H]-SCH 23390, read-out: Ki(nM) Compound 1", "experimental": "as §1, §2"}, "DBA/2 mice": {"tested_on": "DBA/2 mice", "experiment": "Anticonvulsant activity: audiogenic seizures in DBA/2 mice", "format": "in vivo", "settings": "for ED50: Mus musculus; for behavioural changes: all dosages tested", "description": "DBA/2 mice weighing 6-12 g (22-26 days old; either sex, Harlan Italy Correzzana, Milano, Italy) are housed in groups of 8-10 under a 12-h light/dark cycle (lights on at 7:00 a.m.) with food and water available ad libitum. The experimental protocol is approved by University of Catanzaro Ethical Committee. All procedures are in compliance with the Nationals Institutes of Health Guide for Care and Use of Laboratory Animals (Publication No. 85-23, revised 1985) and European Communities Council Directive of 24 Nov. 1986 (86/609 EEC).\nThe experiments are performed according to the method previously described by De Sarro et al. (1984), Eur. J. Pharmacol., 104, 55-60. Compounds of the invention or vehicle (controls) are given intraperitoneally (i.p.) and orally (p.o.) as freshly sonicated solutions in methylcellulose 1%. For the […]; pretreatment time at 30 and 60 min., For oral treatment, all animals are pretreated either at 30 or 60 min using the compounds of the invention at doses of 0.1, 0.3, 3, 6 and 10 mg/kg p.o. At least 10 mice per dose are used. After pretreatment time, each mouse is placed under a hemispheric perspex dome (58 cm in diameter) and 1 min is allowed for habituation and assessment of locomotor activity. Animals are challenged with a 12-16 kHz sinusoidal tone at 109 dB. Seizure response is assessed by two independent observers. The sound evoked behaviour is coded using the following scale: 0=no response, 1=wild running, 2=clonus, 3=tonic flexor and/or extensor; 4=respiratory arrest, on the basis of the concordant opinion of the observers. […] The maximum response is recorded for each animal. Rectal temperature is recorded immediately prior to auditory testing using an Elektrolaboratoriet thermometer type T.E.3. Behavioral changes are observed during the period between drug administration and auditory testing. In these experiments separate vehicle-treated and drug-treated groups are used at each pretreatment time (15 min-60 min). Percentage of mice showing wild running, clonic or tonic phase and the duration of anticonvulsant activity are compared to control group and statistically analyzed.\nStatistical comparison between groups of control and drug-treated DBA/2 mice is made using Fisher's exact probability test (incidence of the seizure phases). The percentage incidence of each phase of the audiogenic seizure is determined for each drug. These values are plotted against the corresponding doses by a computer construction of the dose-effect curves for calculation of ED50 (with 95% confidence limits). The ED50 values for each compound are calculated using a computer program of the method of Litchfield and Wilcoxon (1949). At least 32 animals are used to calculate each ED50 value.\nFor systemic injections and oral administrations, all compounds are given intraperitoneally (0.1 ml/10 g of body weight of the mouse) as a freshly prepared solution in methylcellulose 1%. In order to avoid the light sensitivity, weighing and handling are carried out under sodium vapor lamps and the substances are protected from light during the experiments."}}, "note": "Where two headings read alike, the source gives them in different places.", "data": [{"smiles": "Nc1cc2cccc(N3CCNCC3)c2oc1=O", "note": "[Compound 1, 3-amino-8-(1-piperazinyl)-2H-1-benzopyran-2-one]", "values": [{"measurement": "Ki", "setting": "Prostaglandin-I2", "result": "> 1000", "unit": "nM"}, {"measurement": "Ki", "setting": "Dopamine-D1", "result": "> 1000", "unit": "nM"}, {"measurement": "ED50", "setting": "DBA/2 mice; ip, 0.5 h, read-out: ED50 Tonic extension, i.p. administration, 30 minutes after drug administration", "result": 0.66, "unit": "mg/kg"}, {"measurement": "ED50", "setting": "DBA/2 mice; ip, 0.5 h, i.p. administration, 30 minutes after drug administration, read-out: ED50 Clonic seizures", "result": 3.7, "unit": "mg/kg"}, {"measurement": "ED50", "setting": "DBA/2 mice; ip, 0.5 h, i.p. administration, 30 minutes after drug administration, read-out: ED50 Wild running", "result": 39, "unit": "mg/kg"}, {"measurement": "ED50", "setting": "DBA/2 mice; ip, 1 h, i.p. administration, 60 minutes after drug administration, read-out: ED50 Clonic seizures", "result": 1.9, "unit": "mg/kg"}, {"measurement": "ED50", "setting": "DBA/2 mice; ip, 1 h, i.p. administration, 60 minutes after drug administration, read-out: ED50 Tonic extension", "result": 0.26, "unit": "mg/kg"}, {"measurement": "ED50", "setting": "DBA/2 mice; ip, 1 h, i.p. administration, 60 minutes after drug administration, read-out: ED50 Wild running", "result": 20.5, "unit": "mg/kg"}, {"measurement": "ED50", "setting": "DBA/2 mice; po, 0.5 h, p.o. administration, 30 minutes after drug administration, read-out: ED50 Clonic seizures", "result": 4.91, "unit": "mg/kg"}, {"measurement": "ED50", "setting": "DBA/2 mice; po, 0.5 h, read-out: ED50 Tonic extension, p.o. administration, 30 minutes after drug administration", "result": 1.19, "unit": "mg/kg"}, {"measurement": "ED50", "setting": "DBA/2 mice; po, 1 h, p.o. administration, 60 minutes after drug administration, read-out: ED50 Clonic seizures", "result": 1.34, "unit": "mg/kg"}, {"measurement": "ED50", "setting": "DBA/2 mice; po, 1 h, p.o. administration, 60 minutes after drug administration, read-out: ED50 Tonic extension", "result": 0.27, "unit": "mg/kg"}, {"measurement": "behavioural changes", "setting": "DBA/2 mice; i.p. administration", "result": "At none of the dosages tested"}, {"measurement": "behavioural changes", "setting": "DBA/2 mice; oral administration", "result": "At none of the dosages tested"}]}]}
